The values below come from US20220324835A1 (Nurix Therapeutics, Inc., priority 2018, published 2022).

Test [1] addresses T1, Cbl-b (Homo sapiens, UniProt Q13191). The test can be described thus: Cbl-b inhibition assay (Cbl-b activity assay, FRET, Biological Example 1; 100 mM NaCl, 60 nM Src kinase). It is filed as biochemical. The conditions noted are these: upper bound stated in text lists; read-out: IC50 values in the Cbl-b inhibition assay of Biological Example 1. The method, boiled down: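 Inhibitor activity is measured as reduced terbium-to-fluorescein FRET between streptavidin-terbium on biotinylated Cbl-b and Bodipy-fluorescein ubiquitin carried by an irreversible UbcH5B-Ub conjugate, binding of which depends on Src phosphorylation of Cbl-b.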

Test [2] concerns T-cell. The test can be described thus: IL-2 secretion from T-cells co-stimulated with anti-CD3 and anti-CD28 antibody (Biological Example 2). The conditions noted are these: Homo sapiens, T-cell, primary human total T-cells, baseline = anti-CD3/anti-CD28 stimulated cells without inhibitor, read-out: IL-2 secretion, Anti-CD3/Anti-CD28 stimulation, fold change over baseline; for fold induction at 0.3 µM: 0.3 μM compound; for fold induction at 1 µM: 1 μM compound; for fold induction at 4 µM: 4 μM compound. It is filed as cell-based, human. The method, boiled down: (§1)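 No assay protocol given; T-cells stimulated with anti-CD3 alone or anti-CD3 plus anti-CD28, with or without Cbl-b inhibitor. Activation read as IL-2 secretion or CD25 surface staining, expressed as fold over baseline from uninhibited cells […].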

Test [3] has as its system T-cell. The test can be described thus: CD25 cell surface staining on T-cells co-stimulated with anti-CD3 and anti-CD28 antibody (Biological Example 2). The test is classed as cell-based, human. The following applies: Homo sapiens, T-cell, primary human total T-cells, baseline = anti-CD3/anti-CD28 stimulated cells without inhibitor, read-out: CD25 staining, Anti-CD3/Anti-CD28 stimulation, fold change over baseline; for fold induction at 0.3 µM: 0.3 μM compound; for fold induction at 1 µM: 1 μM compound; for fold induction at 4 µM: 4 μM compound. The method in brief: as §1

The target in test [4] is T1, Cbl-b. Nature of the test: Cbl-b activity assay (Cbl-b inhibition assay), TR-FRET of Cbl-b interaction with UbcH5B-Ub. The test is classed as biochemical. The conditions noted are these: assay buffer with 100 mM NaCl, 60 nM Src kinase; read-out: Cbl-b activity IC50. The method in brief: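 TR-FRET readout of Cbl-b binding to Bodipy-fluorescein N-terminally labeled Ub conjugated to UbcH5B C85K, measured with compound present. After compound incubation, 60 nM Src kinase with 1 mM ATP and 5 mM MgCl2 (final) was added for 1.5 h, then a further 1 h incubation; asterisked values used 50 mM NaCl buffer and 30 nM Src.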
(TR-FRET usually uses a lanthanide donor and a delayed reading to cut background.)

In test [5] the test system is T-cell. Nature of the test: IL-2 secretion from T-cells stimulated with anti-CD3 antibody alone (Biological Example 2). The test is classed as cell-based. The conditions noted are these: primary human total T-cells, read-out: IL-2 secretion, Anti-CD3 stimulation, fold change over baseline; for fold induction at 1 µM: 1 μM compound; for fold induction at 8 µM: 8 μM compound.

In test [6] the test system is T-cell. The test can be described thus: CD25 cell surface staining on T-cells stimulated with anti-CD3 antibody alone (Biological Example 2). It is filed as cell-based. The conditions noted are these: primary human total T-cells, baseline = anti-CD3/anti-CD28 stimulated cells without inhibitor, read-out: CD25 staining, Anti-CD3 stimulation, fold change over baseline; for fold induction at 1 µM: 1 μM compound; for fold induction at 8 µM: 8 μM compound.

T1 sequence (Q13191 36-427): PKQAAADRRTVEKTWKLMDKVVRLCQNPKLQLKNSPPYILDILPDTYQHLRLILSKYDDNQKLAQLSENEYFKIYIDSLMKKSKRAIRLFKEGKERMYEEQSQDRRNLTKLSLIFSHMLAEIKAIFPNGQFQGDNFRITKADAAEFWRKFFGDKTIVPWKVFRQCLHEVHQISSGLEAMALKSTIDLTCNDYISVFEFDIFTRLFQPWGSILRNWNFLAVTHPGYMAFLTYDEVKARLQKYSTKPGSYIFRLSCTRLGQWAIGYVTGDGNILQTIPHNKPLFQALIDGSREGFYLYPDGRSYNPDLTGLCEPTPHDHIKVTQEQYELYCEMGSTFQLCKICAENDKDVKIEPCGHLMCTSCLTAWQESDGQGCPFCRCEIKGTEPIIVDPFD

For orientation: IC50 means the concentration needed to halve the response being measured. Consider `CN1CC[C@@H](O)[C@@H](Cc2cc3c(c(C(F)(F)F)c2)CN(c2cccc(C4(Cc5nncn5C)COC4)c2)C3=O)C1` (racemic) [Compound 532, 6-(((cis)-4-hydroxy-1-methylpiperidin-3-yl)methyl)-2-(3-(3-((4-methyl-4H-1,2,4-triazol-3-yl)methyl)oxetan-3-yl)phenyl)-4-(trifluoromethyl)isoindolin-1-one], for which the figures for the IC50 at Cbl-b [1] and at Cbl-b [4] were at most 100 nM and under 100 nM, respectively. In addition, the results for the fold induction at 0.3 µM in the test on T-cell [2] and with T-cell [3] were 1.01 to 2.5 and 1.01 to 1.3, respectively. For the same molecule, the fold induction at 1 µM lay in the range of 2.51 to 5 in the test with T-cell [2], 1.01 to 1.3 in the test with T-cell [3], 0.101 to 0.15 in the test on T-cell [5] and 0.801 to 1 with T-cell [6].
Turning to `Cn1cnnc1CC1(c2cccc(N3Cc4c(cc(CN5CC[C@H]6C[C@H]65)cc4C(F)(F)F)C3=O)c2)COC1` (single isomer, unassigned) [Compound 486a], the values for the IC50 on Cbl-b [1] and at Cbl-b [4] were at most 100 nM and under 100 nM, respectively. The fold induction at 0.3 µM in the test with T-cell [2] is over 7.5; with T-cell [3], 1.51 to 1.75. The fold induction at 1 µM in the test on T-cell [2] was over 7.5; in the test with T-cell [3], 1.51 to 1.75; in the test with T-cell [5], over 0.201; in the test with T-cell [6], over 1.
As for `Cn1cnnc1CC1(c2cccc(N3Cc4c(cc(CN5CC[C@@H]6C[C@@H]65)cc4C(F)(F)F)C3=O)c2)COC1` (single isomer, unassigned) [Compound 486b], the IC50 at Cbl-b [1] was at most 100 nM; at Cbl-b [4] it was under 100 nM. Besides, the fold induction at 0.3 µM in the test on T-cell [2] was over 7.5; in the test on T-cell [3], 1.51 to 1.75. Besides, the fold induction at 1 µM in the test on T-cell [2] is over 7.5; in the test with T-cell [3] it was 1.51 to 1.75; with T-cell [5], over 0.201; with T-cell [6] it was over 1.
Take `C[C@H](c1cc2c(c(C(F)(F)F)c1)CN(c1cccc(C3([C@H](F)c4nncn4C)COC3)c1)C2=O)N1CCC2(CC2)C1` (single isomer, unassigned) [Compound 516]: the IC50 on Cbl-b [1] was at most 100 nM; at Cbl-b [4], under 100 nM. Further, the fold induction at 0.3 µM in the test on T-cell [2] is over 7.5; in the test with T-cell [3], over 1.76. Further, the fold induction at 1 µM in the test with T-cell [2] was over 7.5; in the test on T-cell [3], over 1.76; in the test on T-cell [5], over 0.201; in the test on T-cell [6], over 1.
`Cn1cnnc1C[C@@]1(c2cccc(N3Cc4c(cc(CN5CCC6(CC6)C5)cc4C(F)(F)F)C3=O)c2)CCOC1` (single isomer, unassigned) [Compound 517a]: the values for the IC50 at Cbl-b [1] and at Cbl-b [4] were at most 100 nM and under 100 nM, respectively. The fold induction at 0.3 µM in the test with T-cell [2] fell in the range of 2.51 to 5; with T-cell [3], 1.01 to 1.3. Further, the fold induction at 1 µM in the test on T-cell [2] is over 7.5; in the test on T-cell [3], 1.01 to 1.3; in the test with T-cell [5], 0.101 to 0.15; with T-cell [6], 0.801 to 1.
Regarding `Cn1cnnc1C[C@]1(c2cccc(N3Cc4c(cc(CN5CCC6(CC6)C5)cc4C(F)(F)F)C3=O)c2)CCOC1` (single isomer, unassigned) [Compound 517b], the results for the IC50 at Cbl-b [1] and on Cbl-b [4] were at most 100 nM and under 100 nM, respectively. The fold induction at 0.3 µM in the test on T-cell [2] is over 7.5; in the test with T-cell [3], 1.01 to 1.3. The fold induction at 1 µM with T-cell [2] is over 7.5; with T-cell [3], 1.01 to 1.3; with T-cell [5], over 0.201; in the test on T-cell [6] it was over 1.
With `Cc1cc(C(=O)Nc2cccc([C@]3(Cc4nncn4C)CCOC3)c2)nc(C2CC2)n1` (single isomer, unassigned) [Compound 534a], the IC50 on Cbl-b [1] is at most 300 nM; at Cbl-b [4], 100 to 300 nM. For the same molecule, the fold induction at 0.3 µM in the test on T-cell [2] was in the range of 1.01 to 2.5; with T-cell [3], 1.01 to 1.3. The fold induction at 1 µM fell in the range of 2.51 to 5 in the test on T-cell [2], 1.01 to 1.3 in the test with T-cell [3], 0.051 to 0.1 with T-cell [5] and 0.601 to 0.8 with T-cell [6].
On to `Cc1cc(C(=O)Nc2cccc([C@@]3(Cc4nncn4C)CCOC3)c2)nc(C2CC2)n1` (single isomer, unassigned) [Compound 534b], for which the IC50 is at most 100 nM on Cbl-b [1] and under 100 nM at Cbl-b [4]. The fold induction at 0.3 µM in the test with T-cell [2] lay in the range of 2.51 to 5; with T-cell [3] it was 1.01 to 1.3. Further, the fold induction at 1 µM was 2.51 to 5 in the test on T-cell [2], 1.01 to 1.3 with T-cell [3], 0.101 to 0.15 in the test on T-cell [5] and 0.801 to 1 in the test with T-cell [6].
Consider `Cn1cnnc1[C@H](F)[C@@](C)(F)c1cccc(N2Cc3c(cc(C4CC4)cc3C(F)(F)F)C2=O)c1` (stereo in doubt) [Compound 483, 6-cyclopropyl-2-[3-[(1S,2S)-1,2-difluoro-1-(4-methyl-4H-1,2,4-triazol-3-yl)propan-2-yl]phenyl]-4-(trifluoromethyl)-2,3-dihydro-1H-isoindol-1-one], for which the IC50 at Cbl-b [1] was at most 300 nM; at Cbl-b [4], 100 to 300 nM. Moreover, the fold induction at 0.3 µM in the test with T-cell [2] was under 1; in the test with T-cell [3], 1.01 to 1.3. The fold induction at 1 µM in the test on T-cell [2] fell in the range of 1.01 to 2.5; in the test with T-cell [3], 1.01 to 1.3; in the test with T-cell [5], 0.051 to 0.1; in the test on T-cell [6], 0.601 to 0.8. For the same molecule, the fold induction at 4 µM in the test with T-cell [2] was 1.01 to 2.5; in the test with T-cell [3] it was 1.01 to 1.3. The fold induction at 8 µM with T-cell [5] is 0.051 to 0.1; with T-cell [6] it was 0.801 to 1.
As to `Cn1cnnc1C(F)(F)[C@](C)(F)c1cccc(N2Cc3c(cc(C(=O)N4CC(C(F)F)C4)cc3C(F)(F)F)C2=O)c1` [Compound 439, (R)-6-(3-(difluoromethyl)azetidine-1-carbonyl)-2-(3-(1,1,2-trifluoro-1-(4-methyl-4H-1,2,4-triazol-3-yl)propan-2-yl)phenyl)-4-(trifluoromethyl)isoindolin-1-one], in the test with T-cell [2], the fold induction at 0.3 µM lay within 1.01 to 2.5, the fold induction at 1 µM is 1.01 to 2.5 and the fold induction at 4 µM lay in the range of 1.01 to 2.5. For the same molecule, in the test with T-cell [3], the fold induction at 0.3 µM was in the range of 1.01 to 1.3, the fold induction at 1 µM was 1.01 to 1.3 and the fold induction at 4 µM lay in the range of 1.01 to 1.3. Also, the IC50 at Cbl-b [4] is 301 to 1000 nM. Further, in the test with T-cell [5], the fold induction at 1 µM is 0.051 to 0.1 and the fold induction at 8 µM was 0.051 to 0.1. In addition, in the test with T-cell [6], the fold induction at 1 µM lay within 0.601 to 0.8 and the fold induction at 8 µM is 0.801 to 1.
Turning to `Cn1cnnc1C(F)(F)[C@@](C)(F)c1cccc(N2Cc3c(cc(CN4CC[C@H](F)C4)cc3C(F)(F)F)C2=O)c1` [Compound 449, 6-(((S)-3-fluoropyrrolidin-1-yl)methyl)-2-(3-((S)-1,1,2-trifluoro-1-(4-methyl-4H-1,2,4-triazol-3-yl)propan-2-yl)phenyl)-4-(trifluoromethyl)isoindolin-1-one], in the test with T-cell [2], the fold induction at 0.3 µM was under 1, the fold induction at 1 µM is under 1 and the fold induction at 4 µM was 1.01 to 2.5. In the test with T-cell [3], the fold induction at 0.3 µM is under 1, the fold induction at 1 µM is under 1 and the fold induction at 4 µM lay within 1.01 to 1.3. Moreover, the IC50 at Cbl-b [4] lay within 301 to 1000 nM. Besides, in the test on T-cell [5], the fold induction at 1 µM was in the range of 0.051 to 0.1 and the fold induction at 8 µM lay in the range of 0.051 to 0.1. Besides, in the test with T-cell [6], the fold induction at 1 µM was 0.601 to 0.8 and the fold induction at 8 µM fell in the range of 0.801 to 1.
Consider `CC(Cc1nncn1C)c1cc(C2CCC2)cc(N2Cc3c(cccc3C(F)(F)F)C2=O)c1` (stereo not shown) [Compound 476, 2-(3-cyclobutyl-5-(1-(4-methyl-4H-1,2,4-triazol-3-yl)propan-2-yl)phenyl)-4-(trifluoromethyl)isoindolin-1-one], for which, in the test on T-cell [2], the fold induction at 0.3 µM lay in the range of 1.01 to 2.5, the fold induction at 1 µM lay within 1.01 to 2.5 and the fold induction at 4 µM was in the range of 1.01 to 2.5. Further, in the test with T-cell [3], the fold induction at 0.3 µM lay in the range of 1.01 to 1.3, the fold induction at 1 µM fell in the range of 1.01 to 1.3 and the fold induction at 4 µM lay in the range of 1.01 to 1.3. Further, on Cbl-b [4], the IC50 fell in the range of 301 to 1000 nM. For the same molecule, in the test with T-cell [5], the fold induction at 1 µM lay in the range of 0.051 to 0.1 and the fold induction at 8 µM lay within 0.051 to 0.1. In the test with T-cell [6], the fold induction at 1 µM lay in the range of 0.601 to 0.8 and the fold induction at 8 µM was in the range of 0.801 to 1.
